Source: patent US9040713B2, “Methods of managing blood sugar levels and compositions related thereto” (EMORY UNIVERSITY, priority 2010, dated 2015)
Values joined by “and” are separate entries in the source; they are usually repeats but may differ in a detail not shown here. Equal entries are not always repeated.

Experiments:
db/db mice = assay: Blood glucose level test in db/db mice; assay type: in vivo, mouse; conditions: for duration of blood glucose lowering effect: DDN 5 mg/kg oral, insulin 1 U/kg i.p.
Method: Three-month-old mice were starved for 12 h and then orally administrated with vehicle (0.5% methylcellulose) or DDN (5 mg/kg). Cell lysates were prepared from liver and muscle tissues collected at 1 and 2 h after drug administration and analyzed by immunoprecipitation and immunoblotting. […] Three-month-old mice were starved for 12 h and then orally administrated with vehicle (0.5% methylcellulose) or DDN (5 mg/kg). Cell lysates were prepared from liver and muscle tissues collected at 1 and 2 h after drug administration and analyzed by immunoprecipitation and immunoblotting. (C) Hypoglycemic function of DDN in db/db mice. The animals were starved for 12 h and then orally injected with vehicle (0.5% methylcellulose) or DDN (5 mg/kg). […] Blood glucose was monitored before and after drug administration at 1-hour intervals (*: P<0.05, **: P<0.01, n=5, Two-way ANOVA vs vehicle). (D) DDN improves the glucose tolerance in ob/ob mice. The animals were starved for 12 h and then orally dosed with vehicle (0.5% methylcellulose) or DDN (5 mg/kg). […] A bonus of glucose (2 gm/kg) was injected intraperitoneally 1 hour later. Blood glucose was measured at 30-min intervals (*: P<0.05, **:P<0.01, n=5, Two-way ANOVA vs vehicle control).
(A) 4524-E7 provokes IR phosphorylation in various tissues of mice. Three-month-old C57BL/6J mice were starved for 12 h and then dosed with vehicle (0.5% methylcellulose) or 4524-E7 (20 mg/kg). Cell lysates from liver, muscle, and WAT were prepared at 3, 4, and 5 h after drug administration and analyzed by immunoblotting. (B) Basal and insulin-stimulated hepatic glucose production rates were measured by hyperinsulinemic-euglycemic clamp. […] (C) Hypoglycemic effect of 4524-E7 in C57BL/6J mice. C57BL/6J mice were starved for 12 h and then orally administrated with vehicle (0.5% methylcellulose) or 4524-E7 (5 mg/kg). Blood glucose was monitored at different time points as indicated (n=8, *: P<0.05, two-way ANOVA). (D) Hypoglycemic effect in db/db mice. db/db mice were starved for 12 h and then orally injected with vehicle (0.5% methylcellulose) or 4524-E7 (5 mg/kg). Blood glucose was monitored at different time points as indicated (n=5, *: P<0.05, two-way ANOVA). (E) Glucose tolerance test in ob/ob mice. The mice were starved for 12 hours and then orally administrated with vehicle or 4524-E7 (5 mg/kg). A bonus of glucose (2 gm/kg) was injected intraperitoneally 1 hour later. Blood glucose was then measured at 30 min intervals (n=13, *: P<0.05; **: P<0.01, two-way ANOVA).
After a 12 h fasting, C57B5L/6J and db/db mice were bled from the tail vein for a baseline measurement with a glucometer (Accu-Chek; Roche Diagnostics, Indianapolis, Ind.). […] Blood glucose levels were measured at hourly intervals over 5 h.

IR = IR (Homo sapiens, UniProt P06213); assay: Immunoblotting of IR phosphorylation and downstream signaling in CHO-IR cells; assay type: cell-based; design: expressed in transfected cells; host or cells: CHO (CHO-IR, gift from Dr. Nicholas Webster, UCSD)
IR, sequence (P06213 763-1382 limits assumed): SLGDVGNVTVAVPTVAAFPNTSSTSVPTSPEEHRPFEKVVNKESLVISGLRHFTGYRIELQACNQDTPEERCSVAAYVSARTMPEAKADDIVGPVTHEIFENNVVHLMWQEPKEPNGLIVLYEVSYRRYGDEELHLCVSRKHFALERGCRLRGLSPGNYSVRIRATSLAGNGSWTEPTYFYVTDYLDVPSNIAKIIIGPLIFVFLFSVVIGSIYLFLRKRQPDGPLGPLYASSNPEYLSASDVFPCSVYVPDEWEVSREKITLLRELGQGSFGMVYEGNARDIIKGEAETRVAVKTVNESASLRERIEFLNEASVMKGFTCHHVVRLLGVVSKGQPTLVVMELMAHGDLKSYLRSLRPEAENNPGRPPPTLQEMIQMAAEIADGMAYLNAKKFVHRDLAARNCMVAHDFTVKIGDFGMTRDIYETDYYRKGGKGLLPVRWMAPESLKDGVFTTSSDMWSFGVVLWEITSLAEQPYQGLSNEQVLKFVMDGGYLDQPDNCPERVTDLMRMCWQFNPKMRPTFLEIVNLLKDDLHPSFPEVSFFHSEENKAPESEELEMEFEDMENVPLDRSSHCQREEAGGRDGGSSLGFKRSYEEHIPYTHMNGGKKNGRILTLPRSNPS
IR, sequence (P06213 28-758 limits assumed): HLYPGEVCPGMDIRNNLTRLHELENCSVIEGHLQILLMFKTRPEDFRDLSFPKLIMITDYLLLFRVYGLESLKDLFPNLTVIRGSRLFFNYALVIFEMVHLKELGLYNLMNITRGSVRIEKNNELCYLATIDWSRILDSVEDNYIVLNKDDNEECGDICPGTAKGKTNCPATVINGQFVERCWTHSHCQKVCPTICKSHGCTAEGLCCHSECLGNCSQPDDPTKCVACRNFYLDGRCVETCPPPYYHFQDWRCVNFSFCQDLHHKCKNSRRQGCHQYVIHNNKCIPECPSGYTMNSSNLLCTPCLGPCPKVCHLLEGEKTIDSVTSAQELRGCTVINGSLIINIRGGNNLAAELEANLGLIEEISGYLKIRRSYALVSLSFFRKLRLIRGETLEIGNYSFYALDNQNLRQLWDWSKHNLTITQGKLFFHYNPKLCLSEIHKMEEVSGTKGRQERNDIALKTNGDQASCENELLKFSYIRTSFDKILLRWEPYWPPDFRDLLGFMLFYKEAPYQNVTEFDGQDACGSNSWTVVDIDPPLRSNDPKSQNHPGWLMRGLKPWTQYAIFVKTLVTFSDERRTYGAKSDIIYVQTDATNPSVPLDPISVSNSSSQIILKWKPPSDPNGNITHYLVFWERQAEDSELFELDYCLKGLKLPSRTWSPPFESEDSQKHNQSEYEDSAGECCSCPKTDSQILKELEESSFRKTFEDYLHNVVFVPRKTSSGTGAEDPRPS
Method: The cell lysates were analyzed by immunoblotting with anti-phospho-IR antibodies, or immunoprecipitated by PY20 and analyzed using anti-IR and anti-IRS-1, respectively. […] The cell lysates were analyzed by immunoblotting with anti-pIGF-1R and anti-pEGFR. […]
A cell-based ELISA assay was developed with an IR stably transfected Chinese Hamster Ovary (CHO-IR) cell line. […] The cell lysates were subjected to the sandwich ELISA using immobilized anti-phosphotyrosine antibody and anti-IR antibody.

3T3-L1 adipocytes = assay: Fatty acid oxidation assay; assay type: cell-based, mouse; conditions: 100 nM insulin or 5 μM 4524-E7; normalized to DMSO-treated cells
Method: (A) 4524-E7 activates IR phosphorylation and its downstream signaling in 3T3-L1 adipocytes. […] The cells were lysed, and immunoprecipitated with PY20, and followed by Western blot using specific antibodies. (B) 4524-E7 stimulates glucose uptake in 3T3-L1 adipocytes. […] [3H]2-deoxyglucose was added, and the cells were further incubated for 10 min. The amount of [3H]2-deoxyglucose taken by adipocytes was measured. (C) 4524-E7 inhibits fatty acid oxidation. […] Results were normalized to DMSO-treated cells and expressed as mean±S.E.M. (*: P<0.05; **:P<0.01, Student's t-test, n=3). (D) IR knockdown in adipocytes decreases IR signaling by 4524-E7. […] Cells lysates were collected and analyzed by Western blot. (E) The glucose uptake induced by 4524-E7 in p85α knockout MEF cells. […] The uptaken [3H] 2-deoxyglucose was monitored by liquid scintillation counter. Results were expressed as mean±S.E.M. (*: P<0.05; **:P<0.01, Student's t-test, n=3).
Fatty acid oxidation was measured by determining the production of 3H2O from [9, 10-3H] palmitate. Differentiated NIH3T3-L1 were plated (0.5×10^5 cell per well) in a 12-well plate for 1 day. […] After incubation, the medium was removed and extracted with Chloroform/Methanol (2:1), and the aqueous phase containing 3H2O was collected and used for radioactivity measurement in a liquid scintillation counter.

time at which IR phosphorylation starts (IR; 5 μM) | tyrosine phosphorylation of IRS-1 (IR; 5 μM, 15 min) | tyrosine phosphorylation of the IR β subunit in Y1146 and Y1158/1162/1163 (IR; 5 μM, 15 min) | concentration stimulating the IR signal cascades (IR; DDN or CSN 30 min, insulin 15 min) | concentration activating IR cascade strongly and specifically (IR) | IR tyrosine phosphorylation (IR; 5 μM, 30 min) | concentration at which Erk1/2 activation was detected (IR; 15 min) | concentration elevating Akt phosphorylation (IR; 15 min) | Compound | blood glucose as compared to vehicle control (db/db mice; 5 mg/kg oral, one h after administration) | duration of blood glucose lowering effect (db/db mice) | lipid oxidation (3T3-L1 adipocytes) | blood glucose (db/db mice; 5 mg/kg oral, one hour after administration) | tyrosine phosphorylation on the IR (IR; 5 μM, 15 min)
5 to 15 min and 5 min | also increased | strongly stimulated | 5 µM |  |  |  |  | CC(=O)Oc1ccc(OC(C)=O)c2c1C(=O)C(Cl)=C(Cl)C2=O [DDN, 5,8-diacetyloxy-2,3-dichloro-1,4-naphthoquinone] | lower blood glucose was found in db/db mice | sustain till the end of the experiment |  |  | 
 |  |  |  | 1 to 2.5 µM | triggered IR tyrosine phosphorylation | ≥ 5 µM | 0.5 µM | O=C1c2ccccc2C(=O)C2SC(Nc3ccc(Cl)cc3)=NC12 (stereo not drawn) [4524-E7, 2-((4-chlorophenyl)amino)naphtho[2,3-d]thiazole-4,9(3aH,9aH)-dione] |  |  | ~50 % of the control | about 50 % of the initial value | increased the tyrosine phosphorylation on the IR
 |  |  |  |  |  |  |  | insulin: insulin, used as positive control |  | 2 h | ~70 % of the control |  | 
